Positions of bridges follow the written chain, without caps; N, C: chain ends. Non-standard residues stand in square brackets, D forms with d. Residues, ends and D or L forms follow the SMILES beside them. Agb = N=C(N)NCC[C@H](N)C(=O)O

One series has as its target human Nav1.7 (Homo sapiens, UniProt Q15858). The experiment in a line: cell-based. As to conditions: for IC50: whole-cell voltage clamp, HEK 293 cells, read-out: hNav1.7 IC50. On the procedure:
HEK-293 cells stably expressing human Nav1.1, Nav1.4, Nav1.5, Nav1.6 and Nav1.7 were obtained from Dr. Chris Lossin. Rat Nav1.3 expressing HEK-293 cells were from Dr. Steven Waxman (Yale University, New Haven, CT). These cell lines were cultured in complete DMEM supplemented with 10% FBS, 1% penicillin/streptomycin, and G418. The human Nav1.8 channel (co-expressing with human Navβ1 and Navβ2 subunits) and the Nav1.9 channel (co-expressing with human Trkb, Navβ1, and Navβ2 subunits) were obtained from Icagen (Durham, NC). hNav1.8 cells cultured with G418 (0.4 mg/mL) and puromycin ([…]/mL) and hNav1.9 cells were cultured with G418 (0.4 mg/mL), puromycin ([…]), and zeocin (0.05 mg/mL). Human Nav1.2 were expressed transiently by transfection of the hNav1.2 cDNA (from Dr. Alan L. Goldin, UC Irvine, CA) into HEK-293 cells.
Whole-cell patch-clamp experiments on recombinant channels were conducted manually at room temperature (22-24° C.) using an EPC-10 amplifier (HEKA Electronik, Lambrecht/Pfalz, Germany). Cells were trypsinized and plated onto poly-1-lysine-coated coverslips. All recordings were done in normal Ringer external bath solution containing (in mM) 160 NaCl, 4.5 KCl, 2 CaCl2), 1 MgCl2, 10 HEPES (pH 7.4 and 305 mOsm) as. Patch pipettes were pulled from soda lime glass (micro-hematocrit tubes, Kimble Chase, Rochester, NY) and had resistances of 2-3 MQ when filled with CsF-based internal solution containing (in mM) 10 NaF, 110 CsF, 20 CsCl, 10 HEPES, 2 EGTA, (pH 7.4, 310 mOsm). Data acquisition and analysis were performed with Pulse-PulseFit (HEKA Electronik GmbH, Germany), IgorPro (WaveMetrics, Portland, OR), and Origin 9.0 software (OriginLab Corporation, Northampton, MA). Cells were held at −90 mV and voltage stepped to −120 mV for 200 ms before depolarizing to −10 mV for 50 msec to elicit inward currents. Control test currents were monitored for 5-10 min to ensure that the amplitude and kinetics of the response were stable. Series resistance was compensated to 80-90% and linear leak currents and capacitance artefacts were corrected using a P/4 subtraction method. Pulse interval was 0.1 Hz and peptides were applied to individual cells using a glass transfer pipette directly into the recording bath. For measuring inhibition, currents were allowed to saturate with repeated pulsing before addition of subsequent doses. IC50 values were derived from measurements performed on individual cells that were tested with at least three or more concentrations of each peptide.

In the next series the target is T1, human Nav1.2 (Homo sapiens, UniProt Q99250).
T1 construct: host or cells: HEK-293 (transient)
The experiment in a line: cell-based. As to conditions: HEK293, read-out: block of hNav1.2 current (% inhibition).

Another series deals with human Nav1.4 (Homo sapiens, UniProt P35499). The experiment in a line: cell-based. As to conditions: HEK293, read-out: block of hNav1.4 current (% inhibition).
Chain of human Nav1.4 (P35499 whole entry): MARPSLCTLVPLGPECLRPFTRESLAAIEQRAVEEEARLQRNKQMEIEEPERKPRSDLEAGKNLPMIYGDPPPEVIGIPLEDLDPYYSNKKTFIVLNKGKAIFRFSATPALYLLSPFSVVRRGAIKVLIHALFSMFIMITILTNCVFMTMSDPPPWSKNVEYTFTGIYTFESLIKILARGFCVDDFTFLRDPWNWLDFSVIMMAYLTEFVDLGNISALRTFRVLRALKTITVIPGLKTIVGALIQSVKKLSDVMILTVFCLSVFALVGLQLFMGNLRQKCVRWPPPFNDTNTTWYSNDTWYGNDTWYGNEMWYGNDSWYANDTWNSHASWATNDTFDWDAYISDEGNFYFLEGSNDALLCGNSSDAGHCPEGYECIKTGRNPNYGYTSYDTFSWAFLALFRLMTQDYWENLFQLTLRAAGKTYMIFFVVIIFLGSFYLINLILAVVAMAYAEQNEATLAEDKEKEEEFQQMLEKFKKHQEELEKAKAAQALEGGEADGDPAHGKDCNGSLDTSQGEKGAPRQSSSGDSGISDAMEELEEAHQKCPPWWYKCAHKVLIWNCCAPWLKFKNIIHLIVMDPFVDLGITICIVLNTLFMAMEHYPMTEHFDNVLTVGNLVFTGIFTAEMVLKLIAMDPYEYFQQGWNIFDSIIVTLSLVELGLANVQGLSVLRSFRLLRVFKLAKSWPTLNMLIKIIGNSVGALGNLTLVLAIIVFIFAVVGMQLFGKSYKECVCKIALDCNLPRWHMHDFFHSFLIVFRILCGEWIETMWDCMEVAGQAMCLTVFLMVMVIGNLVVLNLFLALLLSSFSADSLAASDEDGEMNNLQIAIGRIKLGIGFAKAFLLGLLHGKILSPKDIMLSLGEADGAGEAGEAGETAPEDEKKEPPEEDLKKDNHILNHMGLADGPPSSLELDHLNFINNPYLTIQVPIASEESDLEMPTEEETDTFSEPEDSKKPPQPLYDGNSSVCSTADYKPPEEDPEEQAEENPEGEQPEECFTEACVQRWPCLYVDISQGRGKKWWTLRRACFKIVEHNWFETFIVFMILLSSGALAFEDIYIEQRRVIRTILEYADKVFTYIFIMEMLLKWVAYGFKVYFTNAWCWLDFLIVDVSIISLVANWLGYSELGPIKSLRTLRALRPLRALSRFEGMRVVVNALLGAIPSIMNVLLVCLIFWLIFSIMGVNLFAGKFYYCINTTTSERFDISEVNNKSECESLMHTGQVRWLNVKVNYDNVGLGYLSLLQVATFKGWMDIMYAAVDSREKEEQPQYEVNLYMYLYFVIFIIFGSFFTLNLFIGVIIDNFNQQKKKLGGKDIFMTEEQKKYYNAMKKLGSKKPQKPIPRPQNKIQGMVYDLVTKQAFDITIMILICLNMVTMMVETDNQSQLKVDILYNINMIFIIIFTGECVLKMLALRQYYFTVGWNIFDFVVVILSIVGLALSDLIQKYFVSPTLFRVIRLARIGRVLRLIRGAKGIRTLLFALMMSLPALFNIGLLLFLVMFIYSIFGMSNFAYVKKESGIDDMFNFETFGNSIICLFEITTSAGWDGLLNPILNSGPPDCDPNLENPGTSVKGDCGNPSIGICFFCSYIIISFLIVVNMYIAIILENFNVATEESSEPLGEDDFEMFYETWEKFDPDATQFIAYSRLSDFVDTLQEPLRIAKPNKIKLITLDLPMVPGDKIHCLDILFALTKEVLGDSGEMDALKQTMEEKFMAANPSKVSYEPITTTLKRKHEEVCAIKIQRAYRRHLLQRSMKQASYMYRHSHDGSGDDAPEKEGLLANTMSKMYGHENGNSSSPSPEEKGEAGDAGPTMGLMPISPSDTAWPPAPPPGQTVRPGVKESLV
In another series the target is human Nav1.5 (Homo sapiens, UniProt Q14524). The experiment in a line: in vitro. As to conditions: pH 7.4, read-out: block of hNav1.5 current (% inhibition). It counts as cell-based.
The subject of series [1] is rat models of thermal and chemical nociception. Also on record: motor effect via intrathecal administration: dose or concentration left out as unconfirmed. The note with it: cited from earlier work.
Another series concerns the target hNav1.7 (Homo sapiens, UniProt Q15858). The note with it: peptides of the literature; cited from earlier work.

Chain of human Nav1.7 (Q15858 whole entry): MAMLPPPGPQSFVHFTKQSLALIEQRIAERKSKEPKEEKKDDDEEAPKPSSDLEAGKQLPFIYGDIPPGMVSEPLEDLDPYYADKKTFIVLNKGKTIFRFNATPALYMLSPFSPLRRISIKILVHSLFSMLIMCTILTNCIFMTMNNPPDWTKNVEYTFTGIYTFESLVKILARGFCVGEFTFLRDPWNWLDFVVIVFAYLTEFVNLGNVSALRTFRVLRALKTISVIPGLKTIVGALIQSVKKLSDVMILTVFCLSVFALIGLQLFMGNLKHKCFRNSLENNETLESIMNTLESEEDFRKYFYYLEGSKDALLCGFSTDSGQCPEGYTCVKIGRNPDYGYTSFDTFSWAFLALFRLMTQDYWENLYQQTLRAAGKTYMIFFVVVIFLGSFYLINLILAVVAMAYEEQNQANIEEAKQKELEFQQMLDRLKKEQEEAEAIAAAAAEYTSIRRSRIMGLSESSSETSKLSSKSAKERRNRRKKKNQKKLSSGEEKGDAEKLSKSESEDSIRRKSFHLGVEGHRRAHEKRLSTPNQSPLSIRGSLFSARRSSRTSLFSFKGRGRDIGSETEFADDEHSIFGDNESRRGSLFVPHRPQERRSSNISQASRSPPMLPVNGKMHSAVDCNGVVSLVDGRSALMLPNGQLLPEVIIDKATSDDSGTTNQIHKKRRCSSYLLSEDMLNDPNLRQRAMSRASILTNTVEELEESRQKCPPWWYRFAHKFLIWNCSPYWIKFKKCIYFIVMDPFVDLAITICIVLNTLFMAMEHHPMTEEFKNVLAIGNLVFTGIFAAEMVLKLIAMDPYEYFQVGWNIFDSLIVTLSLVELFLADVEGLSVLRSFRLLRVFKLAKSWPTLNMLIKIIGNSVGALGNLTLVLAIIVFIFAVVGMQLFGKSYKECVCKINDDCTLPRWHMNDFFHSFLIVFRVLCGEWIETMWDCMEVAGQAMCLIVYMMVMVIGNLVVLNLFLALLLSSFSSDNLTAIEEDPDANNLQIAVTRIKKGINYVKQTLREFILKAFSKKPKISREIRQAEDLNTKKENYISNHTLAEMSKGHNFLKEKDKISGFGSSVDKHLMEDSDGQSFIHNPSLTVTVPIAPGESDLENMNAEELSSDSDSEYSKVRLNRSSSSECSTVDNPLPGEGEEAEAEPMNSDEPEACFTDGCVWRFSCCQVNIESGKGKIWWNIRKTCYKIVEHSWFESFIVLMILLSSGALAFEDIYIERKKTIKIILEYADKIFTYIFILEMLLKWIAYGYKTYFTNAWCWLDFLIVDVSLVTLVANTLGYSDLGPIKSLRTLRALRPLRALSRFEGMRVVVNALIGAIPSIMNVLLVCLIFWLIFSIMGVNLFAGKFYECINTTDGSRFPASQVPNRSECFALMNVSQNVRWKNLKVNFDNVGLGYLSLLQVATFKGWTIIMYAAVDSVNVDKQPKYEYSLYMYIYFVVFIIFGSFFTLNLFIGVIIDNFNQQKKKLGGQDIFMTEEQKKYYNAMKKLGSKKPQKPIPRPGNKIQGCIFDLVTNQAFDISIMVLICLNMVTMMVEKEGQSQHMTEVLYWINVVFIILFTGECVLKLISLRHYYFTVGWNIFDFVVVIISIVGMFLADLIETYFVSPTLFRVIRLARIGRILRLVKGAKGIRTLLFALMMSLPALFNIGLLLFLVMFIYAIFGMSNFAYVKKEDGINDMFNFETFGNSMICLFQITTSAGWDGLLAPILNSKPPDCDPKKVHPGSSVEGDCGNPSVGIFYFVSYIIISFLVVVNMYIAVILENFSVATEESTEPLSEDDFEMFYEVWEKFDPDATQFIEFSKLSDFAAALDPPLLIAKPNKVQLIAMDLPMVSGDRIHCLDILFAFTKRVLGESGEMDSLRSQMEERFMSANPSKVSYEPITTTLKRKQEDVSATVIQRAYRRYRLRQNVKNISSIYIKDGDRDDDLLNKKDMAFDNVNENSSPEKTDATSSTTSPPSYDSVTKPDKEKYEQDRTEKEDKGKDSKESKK
Chain of hNav1.7 (Q15858 whole entry): as above

Turning to `CC(C)C[C@@H]1NC(=O)CNC(=O)[C@H](CCC(=O)O)NC(=O)[C@@H]2CSSC[C@H](NC(=O)[C@@H](N)Cc3ccc(O)cc3)C(=O)N[C@@H](CCC(N)=O)C(=O)N[C@@H](CCCCN)C(=O)N[C@@H](C)C(=O)N[C@@H](Cc3ccccc3)C(=O)N[C@@H](Cc3c[nH]c4ccccc34)C(=O)N[C@@H]([C@@H](C)O)C(=O)N[C@H]3CSSC[C@H](NC(=O)[C@H](CCCNC(=N)N)NC1=O)C(=O)N[C@@H](CCNC(=N)N)C(=O)N[C@@H](CC(C)C)C(=O)N[C@@H](Cc1c[nH]c4ccccc14)C(=O)N[C@H](C(=O)N[C@@H](CCCCN)C(=O)N[C@@H](CCCCN)C(=O)N[C@@H](CCC(=O)O)C(=O)N[C@@H](CC(C)C)C(=O)N[C@@H](Cc1c[nH]c4ccccc14)C(N)=O)CSSC[C@H](NC(=O)[C@H](CCCCN)NC(=O)[C@H](CCCNC(=N)N)NC(=O)[C@H](CCC(=O)O)NC(=O)[C@H](CO)NC(=O)[C@H](CC(=O)O)NC3=O)C(=O)N2` [PTx2-2954], the “effect on hNav1.7 currents” value on human Nav1.7 (at 5 μM) was “no effect”.
As to `CC(C)C[C@@H]1NC(=O)CNC(=O)[C@H](CCC(=O)O)NC(=O)[C@@H]2CSSC[C@H](NC(=O)[C@@H](N)Cc3ccc(O)cc3)C(=O)N[C@@H](CCC(N)=O)C(=O)N[C@@H](CCCCN)C(=O)N[C@@H](C)C(=O)N[C@@H](Cc3ccccc3)C(=O)N[C@@H](Cc3c[nH]c4ccccc34)C(=O)N[C@@H]([C@@H](C)O)C(=O)N[C@H]3CSSC[C@H](NC(=O)[C@H](CCCNC(=N)N)NC1=O)C(=O)N[C@@H](CCNC(=N)N)C(=O)N[C@@H](CC(C)C)C(=O)N[C@@H](Cc1c[nH]c4ccccc14)C(=O)N[C@H](C(=O)N[C@@H](CCCNC(=N)N)C(=O)N[C@@H](CCCCN)C(=O)N[C@@H](CCC(=O)O)C(=O)N[C@@H](CC(C)C)C(=O)N[C@@H](Cc1c[nH]c4ccccc14)C(N)=O)CSSC[C@H](NC(=O)[C@H](CCCCN)NC(=O)[C@H](CCCNC(=N)N)NC(=O)[C@H](CCC(=O)O)NC(=O)[C@H](CO)NC(=O)[C@H](CC(=O)O)NC3=O)C(=O)N2` [PTx2-2955], the IC50 (as a rule, the concentration that inhibits the measured activity by half) on human Nav1.7 came out at 185 nM.
The same measure, in the same setting: the value for `CC(C)C[C@@H]1NC(=O)CNC(=O)[C@H](CCC(=O)O)NC(=O)[C@@H]2CSSC[C@H](NC(=O)[C@@H](N)Cc3ccc(O)cc3)C(=O)N[C@@H](CCC(N)=O)C(=O)N[C@@H](CCCCN)C(=O)N[C@@H](C)C(=O)N[C@@H](Cc3ccccc3)C(=O)N[C@@H](Cc3c[nH]c4ccccc34)C(=O)N[C@@H]([C@@H](C)O)C(=O)N[C@H]3CSSC[C@H](NC(=O)[C@H](CCCNC(=N)N)NC1=O)C(=O)N[C@@H](CCNC(=N)N)C(=O)N[C@@H](CC(C)C)C(=O)N[C@@H](Cc1c[nH]c4ccccc14)C(=O)N[C@H](C(=O)N[C@@H](CCCNC(=N)N)C(=O)N[C@@H](CCCCN)C(=O)N[C@@H](CCC(=O)O)C(=O)N[C@@H](CC(C)C)C(=O)N[C@@H](Cc1c[nH]c4ccccc14)C(N)=O)CSSC[C@H](NC(=O)[C@H](CCCCN)NC(=O)[C@H](CCCNC(=N)N)NC(=O)[C@H](C)NC(=O)[C@H](CO)NC(=O)[C@H](CC(=O)O)NC3=O)C(=O)N2` [PTx2-3063] (H-YCQKAFWTCDSARKCCEGLRC[Agb]LWCRKELW-NH2; disulfide 2-16, 9-21, 15-25) was 154 nM.
Consider `CC(C)C[C@@H]1NC(=O)CNC(=O)[C@H](CCC(=O)O)NC(=O)[C@@H]2CSSC[C@H](NC(=O)[C@@H](N)Cc3ccc(O)cc3)C(=O)N[C@@H](CCC(N)=O)C(=O)N[C@@H](CCCCN)C(=O)N[C@@H](C)C(=O)N[C@@H](Cc3ccccc3)C(=O)N[C@@H](Cc3c[nH]c4ccccc34)C(=O)N[C@@H]([C@@H](C)O)C(=O)N[C@H]3CSSC[C@H](NC(=O)[C@H](CCCNC(=N)N)NC1=O)C(=O)N[C@@H](CCCNC(=N)N)C(=O)N[C@@H](CC(C)C)C(=O)N[C@@H](Cc1c[nH]c4ccccc14)C(=O)N[C@H](C(=O)N[C@@H](CCCNC(=N)N)C(=O)N[C@@H](CCCCN)C(=O)N[C@@H](CCC(=O)O)C(=O)N[C@@H](CC(C)C)C(=O)N[C@@H](Cc1c[nH]c4ccccc14)C(N)=O)CSSC[C@H](NC(=O)[C@H](CCCCN)NC(=O)[C@H](CCCNC(=N)N)NC(=O)[C@H](C)NC(=O)[C@H](CO)NC(=O)[C@H](CC(=O)O)NC3=O)C(=O)N2` [PTx2-3064] (H-YCQKAFWTCDSARKCCEGLRCRLWCRKELW-NH2; disulfide 2-16, 9-21, 15-25), for which the inhibition (commonly the relative decrease from the control value, in per cent) at 10 µM was around 92% on human Nav1.2, around 66% at human Nav1.4 and around 25% on human Nav1.5.
As to `CSCC[C@@H]1NC(=O)[C@H](Cc2c[nH]c3ccccc23)NC(=O)[C@H](CCCCN)NC(=O)[C@H](CCC(N)=O)NC(=O)[C@@H](NC(=O)[C@@H](N)Cc2ccc(O)cc2)CSSC[C@@H]2NC(=O)[C@@H]3CSSC[C@@H](C(=O)N[C@@H](CCCNC(=N)N)C(=O)N[C@@H](CCCCN)C(=O)N[C@@H](CCC(=O)O)C(=O)N[C@@H](CC(C)C)C(=O)N[C@@H](CC(C)C)C(N)=O)NC(=O)[C@H](Cc4c[nH]c5ccccc45)NC(=O)[C@H](CC(C)C)NC(=O)[C@H](CCCNC(=N)N)NC(=O)[C@H](CSSC[C@H](NC(=O)[C@H]([C@@H](C)O)NC(=O)[C@H](CCC(N)=O)NC1=O)C(=O)N[C@@H](CC(=O)O)C(=O)N[C@@H](CCCCN)C(=O)N[C@@H](CC(=O)O)C(=O)N[C@@H](CCCNC(=N)N)C(=O)N[C@@H](CCCCN)C(=O)N3)NC(=O)[C@H](CCCNC(=N)N)NC(=O)[C@H](CC(C)C)NC(=O)CNC(=O)[C@H](CCC(=O)O)NC2=O` [PTx2-3066] (H-YCQKWMQTCDKDRKCCEGLRCRLWCRKELL-NH2; disulfide 2-16, 9-21, 15-25), the IC50 at human Nav1.7 was 30.8 nM. Moreover, the inhibition at 10 µM is around 41% at human Nav1.2, around 34% at human Nav1.4 and around 1% on human Nav1.5.
As for `CSCC[C@@H]1NC(=O)CNC(=O)[C@H](CCC(=O)O)NC(=O)[C@@H]2CSSC[C@H](NC(=O)[C@@H](N)Cc3ccc(O)cc3)C(=O)N[C@@H](CCC(N)=O)C(=O)N[C@@H](CCCCN)C(=O)N[C@@H](Cc3c[nH]c4ccccc34)C(=O)N[C@@H](CCSC)C(=O)N[C@@H](Cc3c[nH]c4ccccc34)C(=O)N[C@@H]([C@@H](C)O)C(=O)N[C@H]3CSSC[C@H](NC(=O)[C@H](C(C)C)NC1=O)C(=O)N[C@@H](CCCNC(=N)N)C(=O)N[C@@H](CC(C)C)C(=O)N[C@@H](Cc1c[nH]c4ccccc14)C(=O)N[C@H](C(=O)N[C@@H](CCCCN)C(=O)N[C@@H](CCCCN)C(=O)N[C@@H](CCCCN)C(=O)N[C@@H](CC(C)C)C(=O)N[C@@H](Cc1c[nH]c4ccccc14)C(=O)O)CSSC[C@H](NC(=O)[C@H](CCCCN)NC(=O)[C@H](CCCNC(=N)N)NC(=O)[C@H](CCC(=O)O)NC(=O)[C@H](CO)NC(=O)[C@H](CC(=O)O)NC3=O)C(=O)N2` [ProTx-II], in series [1] (0.24 μg i.t., Merck's study), the “effect on nociceptive assays” value was “no effect”. In addition, the “motor effect via intrathecal administration” value in series [1] (Merck's study) is on record as “laming effect”. In addition, the maximum tolerated dose in series [1] (in 10 μL, rats, Janssen's study) is 2 µg. In addition, the “analgesic effect following intrathecal injection” value in series [1] (rat models of thermal and chemical nociception, Janssen Biotech) was “strong analgesic effect”.
Regarding “DCLKFGWKCNPRNDKCCSGLKSGSNHNWCKLHL [ProTx-III]”, the IC50 on hNav1.7 is 11.5 nM.
ECQKWMWTCDSARACCEGLRCKLWCRKII [JzTx-V]: the IC50 at hNav1.7 is 0.6 nM.
